{"source": "ChEMBL document CHEMBL1154338", "about": "“Synthesis of modified homo-N-nucleosides from the reactions of mesityl nitrile oxide with 9-allylpurines and their influence on lipid peroxidation and thrombin inhibition” (Bioorg Med Chem Lett, 2009)", "key": {"[1]": {"test": "Antioxidant activity assessed as inhibition of xanthine-xanthine oxidase generated superoxide anion radical production at 100 uM by nitroblue tetrazolium method", "format": "functional", "design": "scale not given: the % may be the effect or the level left"}, "[2]": {"test": "Antioxidant activity assessed as inhibition of lipid peroxidation at 100 uM", "format": "functional", "design": "scale not given: the % may be the effect or the level left"}, "[3]": {"test": "Inhibition of soybean lipoxygenase", "design": "species or system Glycine max"}, "[4]": {"system": "Radical scavenging activity", "test": "Antioxidant activity assessed as DPPH free radical scavenging activity at 0.1 mM after 20 mins", "format": "functional"}, "[5]": {"system": "Radical scavenging activity", "test": "Antioxidant activity assessed as DPPH free radical scavenging activity at 0.1 mM after 60 mins", "format": "functional"}, "[6]": {"system": "Radical scavenging activity", "test": "Antioxidant activity assessed as DPPH free radical scavenging activity at 0.05 mM after 60 mins", "format": "functional"}, "[7]": {"system": "Radical scavenging activity", "test": "Antioxidant activity assessed as DPPH free radical scavenging activity at 0.05 mM after 20 mins", "format": "functional"}}, "data": [{"smiles": "O=C(O)/C=C/c1ccc(O)c(O)c1", "values": [{"measurement": "Activity", "setting": "[1]", "value": 10, "unit": "%"}]}, {"smiles": "Cc1c(C)c2c(c(C)c1O)CCC(C)(C(=O)O)O2", "note": "(stereo not given)", "values": [{"measurement": "Activity", "setting": "[2]", "value": 73, "unit": "%"}]}, {"smiles": "Cc1cc(C)c(C2=NOC(Cn3cnc4c(N5CCOCC5)ncnc43)C2)c(C)c1", "note": "(stereo not given)", "values": [{"measurement": "IC50", "setting": "[3]", "value": 100, "unit": "µM"}, {"measurement": "Activity", "setting": "[2]", "value": 81, "unit": "%"}, {"measurement": "Activity", "setting": "[4]", "value": 4, "unit": "%"}, {"measurement": "Activity", "setting": "[1]", "value": 1, "unit": "%"}, {"measurement": "Activity", "setting": "[5]", "value": 4, "unit": "%"}]}, {"smiles": "Cc1cc(C)c(C2=NOC(Cn3cnc4c(N5CCCC5)ncnc43)C2)c(C)c1", "note": "(stereo not given)", "values": [{"measurement": "IC50", "setting": "[3]", "value": 100, "unit": "µM"}, {"measurement": "Activity", "setting": "[2]", "value": 52, "unit": "%"}, {"measurement": "Activity", "setting": "[6]", "value": 11, "unit": "%"}, {"measurement": "Activity", "setting": "[7]", "value": 11, "unit": "%"}]}, {"smiles": "CC(Cc1ccc(O)c(O)c1)C(C)Cc1ccc(O)c(O)c1", "note": "(stereo not given)", "values": [{"measurement": "Activity", "setting": "[6]", "value": 72, "unit": "%"}, {"measurement": "Activity", "setting": "[4]", "value": 81, "unit": "%"}, {"measurement": "Activity", "setting": "[7]", "value": 68, "unit": "%"}, {"measurement": "Activity", "setting": "[5]", "value": 83, "unit": "%"}]}]}
